Laboratory results as given in paper PMC10421400, “Methoxylated Flavonols and ent-Kaurane Diterpenes from the South African Helichrysum rutilans and Their Cosmetic Potential” (Plants, 2023).
“And” between values parts separate entries of the source, which are not always exact repeats. Equal entries are not always repeated. Where two headings read alike, the source gives them in different places.

Tests used:
[1] = Ferric-ion-reducing antioxidant power (FRAP) assay; conditions: ascorbic acid equivalents; sample stock 1 mg/mL; read at 593 nm after 30 min
Protocol: Working FRAP reagent was prepared in accordance with the method described previously. In a 96-well clear microplate (visible range), 10 μL of the stock solution (1 mg/mL, w/v) of the isolated compounds (C-1–C-7) and a methanol extract (HR) were mixed each with 300 μL FRAP reagent. The FRAP reagent was a mixture (10:1:1, v/v/v) of acetate buffer (300 mM, pH 3.6), tripyridyl triazine (TPTZ) (10 mM in 40 mM HCl), and FeCl3·6H2O (20 mM). After incubation at room temperature for 30 min, the plate was read at a wavelength of 593 nm on a Multiskan spectrum plate reader. L-Ascorbic acid was used as a standard with concentrations varying between 0 and 1000 μM. Further dilutions were carried out on the samples that were highly concentrated and such dilution factors were recorded and used for the calculations of the affected samples. The results were expressed as μM ascorbic acid equivalents per milligram dry weight (μM AAE/g) of the test samples.

[2] = Trolox equivalent absorbance capacity (TEAC) assay; conditions: trolox equivalents; sample stock 1 mg/mL; read at 734 nm after 30 min
Protocol: The total antioxidant activity of the test sample was measured using previously described methods. The stock solutions which contained 7 mM ABTS and 140 mM potassium-peroxodisulphate (K2S2O8) (Merck, Johannesburg, South Africa) were prepared and kept at −2 °C. The working solution was then prepared by adding 88 μL K2S2O8 solution to 5 mL ABTS solution. The two solutions were thoroughly mixed and allowed to react for 24 h at room temperature in the dark. Trolox (6-hydrox-2,5,7,8-tetramethylchroman-2-carboxylic acid) was used as the standard with concentrations ranging between 0 and 500 μM. After 24 h, the ABTS mix solution was diluted with ethanol to read a start-up absorbance (control) of approximately 2.0 (±0.1). The stock solution (1 mg/mL) of a methanol extract (HT) and purified compounds (25 μL) were allowed to react with 300 μL ABTS in the dark at room temperature for 30 min. The absorbance was read at 734 nm at 25 °C on the plate reader. The results were expressed as μM trolox equivalents per milligram dry weight (μM TE/g) of the test samples.

[3] = Automated ORAC assay, peroxyl radical (AAPH); conditions: for ORAC Peroxyl: trolox equivalents, AAPH-generated peroxyl radical, fluorescein probe; for ORAC peroxyl radical: scaled × 10^3
Protocol: (§1) ORAC was carried out according to the previous method with some modifications. […] The analyzer was programmed to record the fluorescence of fluorescein every 2 min after AAPH, or H2O2-Cu^2+ was added. The fluorescein solution and sample were added to the wells of an illuminated 96-well plate, and 12 µL of each of our samples (in stock solution of 1 mg/mL) was combined with 138 µL of a fluorescein working solution followed by the addition of 50 µL of 150 mg of AAPH prepared in situ in 6 mL phosphate buffer. Absorbance was measured using the Fluoroskan spectrum plate reader with the excitation wavelength set at 485 nm and the emission wavelength at 530 nm. A calibration curve was established using a trolox stock solution of concentrations in the range of 83–417 µM (R^2 = 0.9514). The ORAC values were calculated using a regression equation (Y = a + bX + cX^2) between trolox concentration (Y in µM) and the net area under the fluorescence decay curve (X). ORAC values were expressed as micromoles of trolox equivalents (TEs) per milligram of test sample. Samples without a perfect curve were further diluted and the dilution factors were used for the result calculations of such samples.

[4] = Automated ORAC assay, hydroxyl radical (H2O2-Cu2+); conditions: trolox equivalents; H2O2-Cu2+-generated hydroxyl radical; fluorescein probe
Protocol: as §1

[5] = tested on: Fe2+-induced lipid peroxidation in microsomes from an S9 liver fraction; assay: Inhibition of Fe(II)-induced microsomal lipid peroxidation (TBARS); assay type: biochemical; conditions: TBARS at 532 nm, Table 2 head prints no unit, IC50 in µg/mL
Protocol: A previously described method was used with a few modifications. The reaction mixture contained microsomes (1 mg of protein/mL in 0.01 M potassium phosphate buffer; pH 7.4, supplemented with 1.15% KCl, m/v) isolated from an S9 liver fraction using a sepharose column. The positive control included microsomes, buffer, and ferrous sulphate, in the absence of the samples to be tested.
The sample stock solutions (HR and C-1–C-7) were prepared in methanol (1 mg/mL, w/v). The working sample solutions were prepared in 0.01M potassium phosphate buffer, pH 7.4, supplemented with 1.15% KCl (m/v) diluted to 26.750, 13.375, 6.688, 3.344, 1.672, and 0.836 µg/mL concentrations. A total of 100 µL of each sample (working solutions) was dissolved in potassium phosphate buffer and pre-incubated with 500 µL microsomes at 37 °C for 30 min in a shaking water bath. A total of 200 µL of KCl buffer was added to the mixture, followed by 200 µL of a 2.5 mM ferrous sulphate solution and incubated at 37 °C for 1 h in a shaking water bath. The reaction was terminated with 10% trichloroacetic acid (TCA, m/v) solution (1 mL) containing 125 µL butylated hydroxytoluene (BHT, 0.01%) and 1 mM ethylenediaminetetraacetic acid (EDTA). Samples were centrifuged at 2000 rpm for 15 min; 1 mL of supernatant was mixed with 1 mL of 0.67% thiobarbituric acid (TBA) solution. The reaction mixture was then incubated in a water bath at 90 °C for 20 min and the absorbance was measured at 532 nm using Multiskan plate reader. EGCG, dissolved in methanol, was used as positive control. The percentage inhibition of TBARS formation relative to the positive control was calculated by Acontrol−Asample/Acontrol×100
(§2) All skin enzyme inhibitory assays and Fe^2+-induced lipid peroxidation assay calculations, expressed as percentage inhibitions ± SD, were performed using MS Excel 2013, while the final values, expressed as IC50, were determined using GraphPad prism 5.0. The data presented are means ± SD obtained from 96-well plate readers for all in vitro experiments in triplicate. Differences between the means were considered to be significant if p < 0.05 according to Prism’s one-way ANOVA. The ORAC, FRAP, and TEAC values were determined using their respective templates. Correlation coefficients among the methods used for determining total antioxidant assays (FRAP, TEAC, and ORAC), as well as skin enzymes inhibitions (tyrosinase anf elastase), were determined using SPSS version 21. Values at p < 0.05 were considered significant.

elastase = molecular target: T1, elastase (Sus scrofa, UniProt P00772); assay: Elastase inhibition assay; assay type: biochemical, porcine
T1 construct: purchased Sigma-Aldrich CAS No. 39445-21-1 (catalogue number not given); host or cells: porcine pancreas
Protocol: Inhibition of elastase by the test samples was assayed using N-succ-(Ala)3-nitroanilide (SANA) as the substrate, monitoring the release of p-nitroanilide by the method described with little adjustment. The inhibitory activity determined the intensity of color released during cleavage of SANA by the action of elastase. The working reagent for anti-elastase assay was prepared in line with the literature. […] The sample stock solutions were prepared as 1 mg in 1 mL methanol. […] The mixtures were further incubated for 10 min and the absorbance was measured at 410 nm. […] The sample control involved the sample and SANA (uninhibited sample). The percentage of elastase inhibition was calculated as follows: 1−B/A×100
Elastase inhibition (%), where A is the enzyme activity without sample and B is the activity in the presence of the sample.
as §2, with “The” for “All skin enzyme inhibitory assays and Fe^2+-induced lipid peroxidation assay calculations, expressed as percentage inhibitions ± SD, were performed using MS Excel 2013, while the final values, expressed as IC50, were determined using GraphPad prism 5.0. The”

[6] = porcine pancreatic elastase, SANA substrate, 410 nm, Table 3 head prints no unit, threshold 100 µg/mL, read-out: ELA (elastase inhibition)

T1 sequence (P00772 27-266): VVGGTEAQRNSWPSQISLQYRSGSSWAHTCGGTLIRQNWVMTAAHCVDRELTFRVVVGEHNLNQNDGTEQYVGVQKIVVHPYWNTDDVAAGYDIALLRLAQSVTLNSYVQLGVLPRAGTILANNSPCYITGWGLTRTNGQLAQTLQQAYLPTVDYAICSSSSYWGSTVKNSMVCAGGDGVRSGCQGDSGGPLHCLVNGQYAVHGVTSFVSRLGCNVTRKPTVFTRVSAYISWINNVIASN

SMILES	LPO (IC50, inhibition of Fe2+-induced lipid peroxidation) [5]	IC50 (elastase; [6])	FRAP [1]	TEAC [2]	ORAC Peroxyl [3]	ORAC Hydroxyl [4]	ORAC peroxyl radical [3]	IC50 (elastase)
O=C(O[C@@H]1Cc2c(O)cc(O)cc2O[C@@H]1c1cc(O)c(O)c(O)c1)c1cc(O)c(O)c(O)c1 [EGCG, Epigallocatechin gallate, reference compound]	0.929 ± 4.11 µg/mL	–	3326.45 ± 5.76 µM AAE/g	11545.44 ± 17.28 µM TE/g	14693.09 ± 5.53 µM TE/g	3.862 ± 4.65 × 10^6 µM TE/g	–	–
COc1c(OC)c(O)c2c(=O)c(OC)c(-c3ccccc3)oc2c1OC [Compound C-3, 5-hydroxy-3,6,7,8-tetramethoxyflavone]	11.64 ± 1.72 µg/mL	> 279 µM	1314.42 ± 2.42 µM AAE/g	1378.10 ± 9.06 µM TE/g	2431.30 ± 8.63 µM TE/g	–	2.431 ± 8.63 × 10^3 µMTE/g	–
C=C1C2CCC3C4(C)CCCC(C)(C(=O)O)C4CCC3(C2)C1O (stereo not drawn) [Compound C-7, 15-α-hydroxy-(-)-ent-kaur-16-en-19-oic acid]	>100 µg/mL	> 314 µM	60.90 ± 7.90 µM AAE/g	1424.51 ± 0.70 µM TE/g	93.10 ± 13.68 µM TE/g	0.845 ± 13.34 × 10^6 µM TE/g	–	–
O=c1cc(CO)occ1O [KJA, kojic acid, reference compound]	–	–	–	–	–	–	–	> 704 µM
COc1c(O)c(OC)c2oc(-c3ccccc3)c(OC)c(=O)c2c1O [Compound C-2, 5,7-dihydroxy-3,6,8-trimethoxyflavone]	16.421 ± 0.92 µg/mL and 16.42 ± 0.92 µg/mL	> 290 µM	1402.62 ± 5.77 µM AAE/g	1276.11 ± 1.32 µM TE/g	2935.47 ± 0.13 µM TE/g	2.413 ± 6.20 × 10^6 µM TE/g	2.935 ± 0.13 × 10^3 µMTE/g	–
COc1cc2oc(-c3ccccc3)c(OC)c(=O)c2c(O)c1OC [Compound C-4, 5-hydroxy-3,6,7-trimethoxyflavone]	14.90 ± 0.06 µg/mL	> 305 µM	1119.44 ± 11.89 µM AAE/g	1207.11 ± 7.21 µM TE/g	2814.51 ± 5.20 µM TE/g	1.917 ± 3.91 × 10^6 µM TE/g	2.814 ± 5.20 × 10^3 µMTE/g	–

Now from value to molecule, other results behind:

LPO (IC50, inhibition of Fe2+-induced lipid peroxidation) [5]	IC50 (elastase; [6])	SMILES	FRAP [1]	TEAC [2]	ORAC Peroxyl [3]	ORAC Hydroxyl [4]	ORAC peroxyl radical [3]	IC50 (elastase)
>100 µg/mL	> 331 µM	C=C1CC23CCC4C(C)(C(=O)O)CCCC4(C)C2CCC1C3 (stereo not drawn) [Compound C-5, ent-kaurenoic acid]	19.66 ± 8.12 µM AAE/g	1105.00 ± 3.09 µM TE/g	364.44 ± 6.71 µM TE/g	0.429 ± 12.00 × 10^6 µM TE/g	–	–
13.123 ± 0.34 µg/mL	> 242 µM	C/C=C(\C)C(=O)Oc1c(O)c(OC)c(O)c2c(=O)c(OC)c(-c3ccccc3)oc12 [Compound C-1, 5,7,8-trihydroxy-3,6-dimethoxyflavone-8-O-2-methyl-2-butanoate]	1251.45 ± 4.18 µM AAE/g	1131.80 ± 6.41 µM TE/g	3523.51 ± 3.22 µM TE/g	2.114 ± 4.01 × 10^6 µM TE/g	–	–
